According to patent publication US20220220480A1, “METHODS AND COMPOSITIONS FOR TREATMENT OF NLRP3 IN[…] IL-1BETA DEPENDENT DISORDERS” (priority 2019, published 2022):

What was measured:
[1] = Imiquimod induced psoriasis-like phenotype, adapted PASI score; format: in vivo, C57BL/6J mice; settings: day 4 of imiquimod administration, AZ13711265 10 mg/kg intraperitoneally daily; for Erythema score (PASI) / Scaling score (PASI): scale 0-4
Procedure: FIG. 5: 8 weeks old C57BL/6J mice were shaved two days before the experiment. One day before administration of imiquimod and daily for 5 days, mice were intraperitoneally injected with vehicle (60% PEG, 40% PBS) or with the Pak1 inhibitor AZ13711265 (10 mg/kg). Mice were treated in the back daily for 4 days either with Vaseline or with Aldara cream corresponding to 3,125 mg of imiquimod (IMQ) to induce psoriasis-like phenotype. The erythema and scaling was analyzed by an adapted version of the clinical PASI score, 0: none; 1: slight; 2: moderated; 3: strong; 4: very strong phenotype. The total score is the cumulative score of scaling and erythema. Results are expressed as mean±SEM. p-value: *<0.01, ***<0.001, compared to control
Futhermore, we investigated the effect of Pak1 kinase inhibitor on a psoriasis model. Dermal application of imiquimod induced a psoriasis-like phenotype including scaling and erythema that are scored using the PASI score.

Caspase-1 activation = experiment: FAM-FLICA Caspase-1 activation assay by microscopy in BMDMs; format: cell-based, mouse; settings: for Block of CNF1-triggered Caspase-1 activity/activation measured using FAM-FLICA: BMDMs, inhibitor 45 min before CNF1 500 ng/mL, 1 μM MCC950, 5 μM IPA-3, 1 μM FRAX597 (FIG. 1b, 2d)
Procedure: Bone-marrow derived macrophages (BMDMs) were extracted from femurs of 6-10 weeks-old BALB/c, C57BL/6J or C57BL/6J KO mice as indicated in the figure legends and were cultured in RPMI GlutaMax medium (Life Technologies) supplemented with 100 ng/mL M-CSF (Premium grade, Miltenyi Biotec), 10% heat-inactivated FBS (Biowest) and 50 μg/mL gentamycin (Life Technologies) at 37° C. in an atmosphere containing 5% CO2. The cells were seeded at a concentration of 10^6 cells per well in a 6-well plate. After 6 days of differentiation, BMDMs were used for experiments. NLRP3, NLRC4, PYRIN, and GSDMD knock-out BMDMs were a kind gift from M. Lamkanfi. […] SiRNAs were transfected in HEK 293T cells or BMDMs during 72 h using Lipofectamine RNAiMAX Reagent (ThermoFisher Scientific) according to the manufacturer instructions. Cells were transfected as indicated in figure legends with siRNAs targeting NLRP3 (L-053455-00, Dharmacon), Rac1 (L-041170-00, Dharmacon), Rac2 (L-041171-01, Dharmacon), Nek7 (J-063266-09, Dharmacon), PAK1 (L-048101-00, Dharmacon), PAK2 (L-040615-00, Dharmacon) or non-targeting control siRNA (D-001810-10, Dharmacon). […] Cells pre-treated with ultrapure LPS for 6 h followed by the addition of Nigericin 504 (Invivogen) or ATP 5 mM (Invivogen) for 30 minutes were used as positive control of NLRP3 inflammasome activation.
Caspase 1 activation was detected using the fluorescent probe FAM-FLICA (ImmunoChemistry Technologies) after 6 h of treatment, according to the manufacturer instructions. After labelling, cells were fixed in 4% paraformaldehyde for 15 min and blocked with 2% TBS-BSA. Cells were incubated with mouse anti-NLRP3 antibody (clone Cryo-2, Adipogen) for 1 hour followed by incubation with secondary antibody TexasRed anti-mouse IgG (TI-2000, Vector Laboratories) and Hoechst (Thermo Fisher Scientific) for 30 minutes. Cells were imaged using Nikon MR confocal microscope. […]
Primary bone marrow derived macrophages (BMDMs) were treated with CNF1 for 6 hours to trigger Caspase-1 activation. […] Cells with dots of FAM-FLICA staining were determined as positive (data not shown). […] To this aim, BMDMs were transfected with a siRNA library targeting mouse NLRs and Caspase-1 activation was monitored as previously described. […]

IL-1β maturation = IL-1β maturation by immunoblot in BMDMs treated with LPS and CNF1; format: cell-based, mouse; settings: 5 μM IPA-3 or 1 μM FRAX597 45 min before CNF1 500 ng/mL and LPS 100 ng/mL 8 h (FIG. 2c)
Procedure: (a-b) BMDMs isolated from BALB/c mice were transfected for 72 h with siRNA targeting either NLRP3, Nek7, Pak1, Pak2 as indicated and non-targeting siRNA were used as control. […] (c) Supernatants and cell lysates were analyzed by immunoblot. […] Active Caspase 1 was stained with FAM-FLICA, analyzed by microscopy and FAM-FLICA positive cells were counted. (n=1000 per conditions). p-value ****<0.0001, compared to the CNF1-treated BMDMs (e) HEK293T cells were transfected with plasmids encoding NLRP3 inflammasome component (myc-NLRP3, ASC-GFP, mCaspase-1) together with Flag-Rac2Q61E (Q61E), myc-Pak1 wild type (WT) or myc-Pak1T423E (T423E) and caspase-1 cleavage was analyzed by immunoblot.
HEK 293T cells were obtained from ATCC (CRL-3216) and maintained according to ATCC instructions. Bone-marrow derived macrophages (BMDMs) were extracted from femurs of 6-10 weeks-old BALB/c, C57BL/6J or C57BL/6J KO mice as indicated in the figure legends and were cultured in RPMI GlutaMax medium (Life Technologies) supplemented with 100 ng/mL M-CSF (Premium grade, Miltenyi Biotec), 10% heat-inactivated FBS (Biowest) and 50 μg/mL gentamycin (Life Technologies) at 37° C. in an atmosphere containing 5% CO2. The cells were seeded at a concentration of 10^6 cells per well in a 6-well plate. After 6 days of differentiation, BMDMs were used for experiments. […]

E. coli expressing CNF1 = experiment: Mouse model of bacteremia with E. coli expressing CNF1; format: in vivo; settings: BALB/c mice, 48 h after infection
Procedure: Data are expressed as the geometric mean±95 CI *p<0.05.
Mice were injected intravenously with 10^7 CFUs of E. coli as previously described^8. For the determination of bacteremia, blood was collected from the tail vein at the indicated times post-infection, serially diluted in sterile PBS and plated on LB plates containing streptomycin (200 μg/ml) and the plates were incubated for 16 h at 37° C. Injection quality was controlled by plating blood samples obtained from the mice at 5 min after injection. NLRP3 knock-out mice were kindly provided by V. Petrilli and have been previously described^21. Female NLRP3 KO and female congenic WT C57BL/6J littermate mice were injected intravenously with 10^7 CFUs of E. coli and the determination of bacteremia was monitored as previously described^8.
Mice were infected with the same strain and concentration of CNF1 expressing E. coli and the bacteremia was measured on each infected mouse at 0 h, 4 h, 24 h and 48 h.

SMILES | Total PASI score (cumulative score of scaling and erythema) [1] | Erythema score (PASI) [1] | Scaling score (PASI) [1] | Block of CNF1-triggered Caspase-1 activity/activation measured using FAM-FLICA (Caspase-1 activation) | Block of IL-1β maturation in macrophages treated with LPS and CNF1 (IL-1β maturation) | further results
CC(C)Cn1cnc2c(N)nc3ccccc3c21 [imiquimod] | 6.5 | 3 | 3.5 |  |  | 
Oc1ccc2ccccc2c1SSc1c(O)ccc2ccccc12 [IPA-3] |  |  |  | sufficient to block | sufficient to block | 
CC(C)(O)c1coc(S(=O)(=O)NC(=O)Nc2c3c(cc4c2CCC4)CCC3)c1 [MCC950] |  |  |  | sufficient to block |  | Animals found positive for bacteria (E. coli expressing CNF1; MCC950 50 mg/kg IP once a day, control group 0): 56%; Bacterial load compared to control group (E. coli expressing CNF1; MCC950 50 mg/kg IP): statistically significant higher
CCn1c(=O)c(-c2ccc(-c3cncs3)cc2Cl)cc2cnc(Nc3ccc(N4CCN(C)CC4)cc3)nc21 [FRAX597] |  |  |  | sufficient to block | sufficient to block | 
CO[C@@H]1C[C@@H](C[C@H]2CC[C@H](C)[C@H]([C@@H](C)C(=O)O)O2)O[C@]2(O[C@](C)([C@H]3CC[C@@](C)([C@@H]4O[C@@H]([C@H]5O[C@@](O)(CO)[C@H](C)C[C@@H]5C)C[C@@H]4C)O3)C[C@H]2C)[C@@H]1C [Nigericin] |  |  |  |  |  | FAM-FLICA positive cells (mean) (Caspase-1 activation; WT BMDMs (FIG. 1b), control condition 2.5%): 15.4%
CCS(=O)(=O)c1cc(Nc2ncc(F)c(N(C)c3cc(CO)c(C)cc3C)n2)ccc1N1C[C@@H]2C[C@H]1CN2C [AZ13711265] | 3.1 | 1.4 | 1.7 |  |  | 
